Earlier results on one compound are cited in patent US10646533B2, “Absorption enhancer for polyphenol” (priority 2015, dated 2020).

The structures appear in SMILES notation. Read-outs that look alike come from different tables or passages of the source.

The conditions of data set [1]: orally ingested, human.
For data set [2] the following is noted: orally ingested, rat.

Consider `O=C(O[C@@H]1Cc2c(O)cc(O)cc2O[C@@H]1c1cc(O)c(O)c(O)c1)c1cc(O)c(O)c(O)c1` [epigallocatechin gallate], for which the “migration rate into blood” value in data set [1] and in data set [2] was “about 2%” each time.
